Experimental data: patent US20120065165A1, “COMPOSITIONS AND METHODS OF TREATING ENDOTHELIAL DISORDERS” (ARGINETIX, INC, priority 2008, published 2012)

Experiments:
diabetic ZDF rats = experiment: Oral ABH in type 2 diabetic ZDF rats: vascular and erectile function (Example 7); format: in vivo, rat
Description: The effects of ABH in the ZDF rat model of type 2 diabetes after systemic in vivo administration is investigated as described below. […] Given the similarities in indicators of vascular dysfunction between aged rats and diabetic animals and humans with respect to elevated arginase and decreased NO the prediction is that orally-administered ABH will result in similar improvements in vascular and erectile function in the type 2 diabetic ZDF rats. […] ABH is hypothesized to inhibit pathologically elevated vascular arginase, restore normal eNOS coupling, and enhance both erectile and vascular endothelial function. […]
ZDF rats are made diabetic by feeding a high-fat diet, while a cohort of ZLC rats are fed a normal diet. […] Aortic PWV is calculated as the separation distance divided by the difference in arrival times of the rat's pulse, with respect to the R-peak of the electrocardiogram (ECG), reported in meters per second (m/s).
At the end of the 4 week treatment period, erectile function is determined in vivo. […] Erectile response to electrical field stimulation (neurogenic response) is measured by catheterizing the right crus, and connecting it to a pressure transducer to permit continuous measurement of intracavernosal pressure (ICP). […] The erectile response (ICP) to injections of […] is determined. ICP is monitored during ACh administration, and until it returns to baseline. […]

arginase I = target: T1, arginase I (Homo sapiens, UniProt P05089); conditions: cited from earlier work
T1 sequence (P05089 1-322): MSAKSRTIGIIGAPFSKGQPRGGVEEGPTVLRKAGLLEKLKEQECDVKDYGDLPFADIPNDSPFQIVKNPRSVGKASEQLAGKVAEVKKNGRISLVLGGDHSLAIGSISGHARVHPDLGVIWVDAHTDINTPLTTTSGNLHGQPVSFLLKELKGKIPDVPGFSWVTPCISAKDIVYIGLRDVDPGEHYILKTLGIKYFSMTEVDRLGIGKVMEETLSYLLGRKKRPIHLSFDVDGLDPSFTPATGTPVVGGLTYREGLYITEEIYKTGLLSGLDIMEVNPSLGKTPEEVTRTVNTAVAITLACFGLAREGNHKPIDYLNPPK

In the case of `N[C@@H](CCCCB(O)O)C(=O)O` [ABH, 2(S)-Amino-6-boronohexanoic acid], the “vascular arginase activity and vascular ROS concentration” value (diabetic ZDF rats; ABH orally four weeks, vs untreated diabetic ZDF rats) is given as “significant decreases”, the “in vivo erectile function, pulse wave velocity and ex vivo vasorelaxation” value (diabetic ZDF rats; ABH orally in drinking water four weeks, vs untreated ZDF rats) is given as “significant improvements” and the “potency as inhibitor of arginase I” value (arginase I) is given as “most potent inhibitor”.
